Measurements as given in patent US5776944A, “7-(4-aminomethyl-3-methyloxyiminopyrroplidin-1-yl)-1-cyclopropyl-6-flu oro-4-oxo-1,4-dihydro-1,8-naphthyridine-3-carboxylic acid and the process for the preparation thereof” (LG Chemical Ltd., priority 1994, dated 1998).
Like-named read-outs stand apart in the source and are kept apart here.

Assays:
[1] = tested on: Staphylococcus aureus 6538p; experiment: In vitro antibacterial activity (MIC, agar medium dilution), Biological Example 4; format: cell-based; settings: 18 h, Table 32, ratio of weight without considering molecular weight, read-out: Minimum Inhibitory Concentration: MIC
[2] = tested on: Staphylococcus aureus giorgio; experiment: as above; format: cell-based; settings: 18 h, Table 32, ratio of weight, read-out: Minimum Inhibitory Concentration: MIC
Staphylococcus aureus 77 = experiment: as above; format: cell-based; settings: 18 h; Staphylococcus aureus 77, Table 32, ratio of weight; read-out: Minimum Inhibitory Concentration: MIC
[3] = tested on: Staphylococcus aureus 241; experiment: as above; format: cell-based; settings: Staphylococcus aureus, 241, 18 h, Staphylococcus aureus 241, Table 32, ratio of weight; read-out: Minimum Inhibitory Concentration: MIC
[4] = tested on: Staphylococcus epidermidis 887E; experiment: as above; format: cell-based; settings: 18 h, read-out: Minimum Inhibitory Concentration: MIC, Staphylococcus epidermidis 887E, Table 32, ratio of weight
[5] = tested on: Staphylococcus epidermidis 178; experiment: as above; format: cell-based; settings: 18 h; Staphylococcus epidermidis 178, Table 32, ratio of weight; read-out: Minimum Inhibitory Concentration: MIC
[6] = tested on: Streptococcus faecalis 29212; experiment: as above; format: cell-based; settings: Enterococcus faecalis, 29212, 18 h, Streptococcus faecalis 29212, Table 32, ratio of weight; read-out: Minimum Inhibitory Concentration: MIC
Bacillus subtilis 6633 = experiment: as above; format: cell-based; settings: 18 h; Bacillus subtilis 6633, Table 32, ratio of weight; read-out: Minimum Inhibitory Concentration: MIC
Micrococcus luteus 9341 = experiment: as above; format: cell-based; settings: 18 h; Micrococcus luteus 9341, Table 32, ratio of weight; read-out: Minimum Inhibitory Concentration: MIC
Escherichia coli 10536 = experiment: as above; format: cell-based; settings: Escherichia coli, 10536, 18 h, read-out: Minimum Inhibitory Concentration: MIC, Escherichia coli 10536, Table 32, ratio of weight
Escherichia coli 3190Y = experiment: as above; format: cell-based; settings: 18 h, Table 32, ratio of weight, read-out: Minimum Inhibitory Concentration: MIC
Escherichia coli 851E = experiment: as above; format: cell-based; settings: 18 h, Table 32, ratio of weight, read-out: Minimum Inhibitory Concentration: MIC
[7] = tested on: Escherichia coli TEM3 3455E; experiment: as above; format: cell-based; settings: TEM33455E, 18 h, read-out: Minimum Inhibitory Concentration: MIC, Escherichia coli TEM3 3455E, Table 32, ratio of weight
[8] = tested on: Escherichia coli TEM5 3739E; experiment: as above; format: cell-based; settings: TEM53739E, 18 h, read-out: Minimum Inhibitory Concentration: MIC
[9] = tested on: Escherichia coli TEM9 2639E; experiment: as above; format: cell-based; settings: TEM92639E, 18 h, read-out: Minimum Inhibitory Concentration: MIC
[10] = tested on: Pseudomonas aeruginosa 1912E; experiment: as above; format: cell-based; settings: 18 h, Table 32, ratio of weight, read-out: Minimum Inhibitory Concentration: MIC
[11] = tested on: Pseudomonas aeruginosa 10145; experiment: as above; format: cell-based; settings: Pseudomonas aeruginosa, 10145, 18 h, Pseudomonas aeruginosa 10145, Table 32, ratio of weight; read-out: Minimum Inhibitory Concentration: MIC
Seratis marsecence 1826E = experiment: as above; format: cell-based; settings: 18 h, Table 32, ratio of weight, read-out: Minimum Inhibitory Concentration: MIC
Description: (§1) In order to determine the antibacterial activitiers of the E- and Z-isomner of the compound 180 which were separated in Example 203, and of 7- (4-aminomethyl-3-methyloxylminopyrrolidin-1-yl)-1-cyclopropyl-6-fluoro-4-oxo-1,4-dihydro-1,8-naphthyridine-3-carboxylic acid methanesulfonate prepared in Example 204, in vitro antibacterial activities of them were measured using agar medium dilution method. The results were as described in the following Tables 31 and 32.

[12] = tested on: Acinetobacter calcoaceticus 15473; experiment: as above; format: cell-based; settings: 18 h; Acinetobacter calcoaceticus 15473, Table 32, ratio of weight; read-out: Minimum Inhibitory Concentration: MIC
[13] = tested on: Citrobacter diversus 2046E; experiment: as above; format: cell-based; settings: Citrobacter koseri, 18 h, Table 32, ratio of weight, read-out: Minimum Inhibitory Concentration: MIC
[14] = tested on: Enterobacter cloacae 1194E; experiment: microbe, parasite or virus in culture; format: cell-based; settings: 18 h, read-out: Minimum Inhibitory Concentration: MIC
Enterobacter cloacae P99 = experiment: microbe, parasite or virus in culture; format: cell-based; settings: P99, 18 h, read-out: Minimum Inhibitory Concentration: MIC
[15] = tested on: Klebsiella aerogenes 1976E; experiment: In vitro antibacterial activity (MIC, agar medium dilution), Biological Example 4; format: cell-based; settings: 18 h, Table 32, ratio of weight, read-out: Minimum Inhibitory Concentration: MIC
[16] = tested on: Klebsiella aerogenes 1082E; experiment: as above; format: cell-based; settings: 18 h, Table 32, ratio of weight, read-out: Minimum Inhibitory Concentration: MIC
Proteus vulgaris 6059 = experiment: as above; format: cell-based; settings: 18 h; Proteus vulgaris 6059, Table 32, ratio of weight; read-out: Minimum Inhibitory Concentration: MIC
[17] = tested on: Salmonella thypimurium 14028; experiment: as above; format: cell-based; settings: 18 h; Salmonella thypimurium 14028, Table 32, ratio of weight; read-out: Minimum Inhibitory Concentration: MIC
test strains = experiment: In vitro antibacterial activity, overall finding, Biological Example 4; format: cell-based; settings: Tables 31 and 32
Description: as §1

[18] = format: physicochemical
[19] = Antibacterial activity of methanesulfonate and its hydrate; format: cell-based
physchem = settings: phosphate buffered solution

Question: Which MIC [1] does the source give for `CON=C1CN(c2nc3c(cc2F)c(=O)c(C(=O)O)cn3C2CC2)CC1CN.CS(=O)(=O)O` (centres unmarked) [Methanesulfonate, 7-(4-aminomethyl-3-methyloxyiminopyrrolidin-1-yl)-1-cyclopropyl-6-fluoro-4-oxo-1,4-dihydro-1,8-naphthyridine-3-carboxylic acid methanesulfonate] here?
Answer: 0.016 µg/mL

Question: And the MIC [2]?
Answer: 0.016 µg/mL

Question: What about the MIC (Staphylococcus aureus 77) of the same compound?
Answer: 0.031 µg/mL

Question: And the MIC [3]?
Answer: 4 µg/mL

Question: What about the MIC [4] of the same compound?
Answer: 0.016 µg/mL

Question: What about the MIC [5] of the same compound?
Answer: 4 µg/mL

Question: And the MIC [6]?
Answer: 0.13 µg/mL

Question: What about the MIC (Bacillus subtilis 6633) of the same compound?
Answer: 0.016 µg/mL

Question: And the MIC (Micrococcus luteus 9341)?
Answer: 0.13 µg/mL

Question: What about the MIC (Escherichia coli 10536) of the same compound?
Answer: 0.008 µg/mL

Question: And the MIC (Escherichia coli 3190Y)?
Answer: 0.008 µg/mL

Question: And the MIC (Escherichia coli 851E)?
Answer: 0.016 µg/mL

Question: And the MIC [7]?
Answer: 0.25 µg/mL

Question: And the MIC [8]?
Answer: 0.13 µg/mL

Question: What about the MIC [9] of the same compound?
Answer: 0.031 µg/mL

Question: What about the MIC [10] of the same compound?
Answer: 0.25 µg/mL

Question: And the MIC [11]?
Answer: 0.5 µg/mL

Question: And the MIC (Seratis marsecence 1826E)?
Answer: 0.13 µg/mL

Question: And the MIC [12]?
Answer: 0.031 µg/mL

Question: What about the MIC [13] of the same compound?
Answer: 0.031 µg/mL

Question: And the MIC [14]?
Answer: 0.031 µg/mL

Question: What about the MIC (Enterobacter cloacae P99) of the same compound?
Answer: 0.016 µg/mL

Question: And the MIC [15]?
Answer: 0.13 µg/mL

Question: And the MIC [16]?
Answer: 0.031 µg/mL

Question: And the MIC (Proteus vulgaris 6059)?
Answer: 0.25 µg/mL

Question: And the MIC [17]?
Answer: 0.031 µg/mL

Question: What about the antibacterial activity (test strains) of the same compound?
Answer: excellent antibacterial activity

Question: What about the solubility [18] of the same compound?
Answer: excellent solubility

Question: And the “antibacterial activity compared with the free form” value [19]?
Answer: the same potent antibacterial activity as the free form

Question: What about the “water solubility compared with other salts and free form” value of the same compound?
Answer: superior to that of the tartarate, the sulfurate, and the p-toluenesulfonate as well as the free form

Question: And the solubility (physchem; pH 2, Water Solubility, phosphate buffered solution (pH 2))?
Answer: > 20 mg/mL

Question: And the solubility (physchem; pH 7, Water Solubility, phosphate buffered solution (pH 7))?
Answer: > 30 mg/mL
